Measured values as given in PubChem BioAssay (NCI).
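Interpolation was linear, between the two tested concentrations surrounding the appropriate level; five concentrations were tested over 48 hours in 96-well plates. GI50 = concentration required for 50% inhibition of growth. TGI denotes the concentration required for complete inhibition of growth.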

Tests used:
Assay in all cases: NCI-60 cell line screen, 48 h
UACC-257 melanoma = system: UACC-257 melanoma
HT29 colon = system: HT29 colon
SNB-19 CNS = system: SNB-19 CNS
MDA-MB-231 breast = system: MDA-MB-231 breast
U251 CNS = system: U251 CNS
OVCAR-5 ovarian = system: OVCAR-5 ovarian
SN12C renal = system: SN12C renal
HS 578T breast = system: HS 578T breast
786-0 renal = system: 786-0 renal
NCI-H522 lung = system: NCI-H522 lung
TK-10 renal = system: TK-10 renal
MCF7 breast = system: MCF7 breast
MOLT-4 leukemia = system: MOLT-4 leukemia
SF-539 CNS = system: SF-539 CNS
SF-295 CNS = system: SF-295 CNS
HCC-2998 colon = system: HCC-2998 colon
IGROV1 ovarian = system: IGROV1 ovarian
OVCAR-3 ovarian = system: OVCAR-3 ovarian
SK-MEL-28 melanoma = system: SK-MEL-28 melanoma
CCRF-CEM leukemia = system: CCRF-CEM leukemia
UO-31 renal = system: UO-31 renal
DU-145 prostate = system: DU-145 prostate
HL-60(TB) leukemia = system: HL-60(TB) leukemia
CAKI-1 renal = system: CAKI-1 renal
RPMI-8226 leukemia = system: RPMI-8226 leukemia
OVCAR-4 ovarian = system: OVCAR-4 ovarian
NCI/ADR-RES ovarian = system: NCI/ADR-RES ovarian
HCT-15 colon = system: HCT-15 colon
PC-3 prostate = system: PC-3 prostate
NCI-H23 lung = system: NCI-H23 lung
SK-MEL-5 melanoma = system: SK-MEL-5 melanoma
RXF 393 renal = system: RXF 393 renal
NCI-H460 lung = system: NCI-H460 lung
A549 NSCLC = system: A549 NSCLC
LOX IMVI melanoma = system: LOX IMVI melanoma
COLO 205 colon = system: COLO 205 colon
HOP-62 NSCLC = system: HOP-62 NSCLC
OVCAR-8 ovarian = system: OVCAR-8 ovarian
A498 renal = system: A498 renal
SR leukemia = system: SR leukemia
KM12 colon = system: KM12 colon
T-47D breast = system: T-47D breast
EKVX NSCLC = system: EKVX NSCLC
BT-549 breast = system: BT-549 breast
MDA-MB-435 = system: MDA-MB-435
SW-620 colon = system: SW-620 colon
SK-MEL-2 melanoma = system: SK-MEL-2 melanoma
SF-268 CNS = system: SF-268 CNS
NCI-H226 lung = system: NCI-H226 lung
UACC-62 melanoma = system: UACC-62 melanoma
HCT-116 colon = system: HCT-116 colon
SK-OV-3 ovarian = system: SK-OV-3 ovarian
SNB-75 CNS = system: SNB-75 CNS
K-562 leukemia = system: K-562 leukemia
ACHN renal = system: ACHN renal
M14 melanoma = system: M14 melanoma

**Q.** Which GI50 (UACC-257 melanoma) does the source give for `CCS(=O)(=O)c1ccc(OC)c(Nc2ncc(-c3cccc(C(C)=O)c3)o2)c1` here?
**A.** > 25 µM

**Q.** And the TGI (UACC-257 melanoma)?
**A.** > 25 µM

**Q.** And the GI50 (HT29 colon)?
**A.** > 25 µM

**Q.** What about the TGI (HT29 colon) of the same compound?
**A.** > 25 µM

**Q.** What about the GI50 (SNB-19 CNS) of the same compound?
**A.** 19.9 µM

**Q.** What about the TGI (SNB-19 CNS) of the same compound?
**A.** > 25 µM

**Q.** What about the GI50 (MDA-MB-231 breast) of the same compound?
**A.** 7.73 µM

**Q.** What about the TGI (MDA-MB-231 breast) of the same compound?
**A.** > 25 µM

**Q.** And the GI50 (U251 CNS)?
**A.** 19.7 µM

**Q.** And the TGI (U251 CNS)?
**A.** > 25 µM

**Q.** What about the GI50 (OVCAR-5 ovarian) of the same compound?
**A.** > 25 µM

**Q.** And the TGI (OVCAR-5 ovarian)?
**A.** > 25 µM

**Q.** And the GI50 (SN12C renal)?
**A.** 14 µM

**Q.** What about the TGI (SN12C renal) of the same compound?
**A.** > 25 µM

**Q.** What about the GI50 (HS 578T breast) of the same compound?
**A.** 5.88 µM

**Q.** And the TGI (HS 578T breast)?
**A.** > 25 µM

**Q.** And the GI50 (786-0 renal)?
**A.** > 25 µM

**Q.** What about the TGI (786-0 renal) of the same compound?
**A.** > 25 µM

**Q.** What about the GI50 (NCI-H522 lung) of the same compound?
**A.** 11 µM

**Q.** What about the TGI (NCI-H522 lung) of the same compound?
**A.** > 25 µM

**Q.** And the GI50 (TK-10 renal)?
**A.** > 25 µM

**Q.** And the TGI (TK-10 renal)?
**A.** > 25 µM

**Q.** What about the GI50 (MCF7 breast) of the same compound?
**A.** > 25 µM

**Q.** What about the TGI (MCF7 breast) of the same compound?
**A.** > 25 µM

**Q.** And the GI50 (MOLT-4 leukemia)?
**A.** > 25 µM

**Q.** And the TGI (MOLT-4 leukemia)?
**A.** > 25 µM

**Q.** And the GI50 (SF-539 CNS)?
**A.** 8.69 µM

**Q.** And the TGI (SF-539 CNS)?
**A.** > 25 µM

**Q.** What about the GI50 (SF-295 CNS) of the same compound?
**A.** 23.1 µM

**Q.** What about the TGI (SF-295 CNS) of the same compound?
**A.** > 25 µM

**Q.** And the GI50 (HCC-2998 colon)?
**A.** > 25 µM

**Q.** And the TGI (HCC-2998 colon)?
**A.** > 25 µM

**Q.** What about the GI50 (IGROV1 ovarian) of the same compound?
**A.** 5.47 µM

**Q.** What about the TGI (IGROV1 ovarian) of the same compound?
**A.** 16.1 µM

**Q.** And the GI50 (OVCAR-3 ovarian)?
**A.** > 25 µM

**Q.** And the TGI (OVCAR-3 ovarian)?
**A.** > 25 µM

**Q.** And the GI50 (SK-MEL-28 melanoma)?
**A.** > 25 µM

**Q.** What about the TGI (SK-MEL-28 melanoma) of the same compound?
**A.** > 25 µM

**Q.** And the GI50 (CCRF-CEM leukemia)?
**A.** > 25 µM

**Q.** What about the TGI (CCRF-CEM leukemia) of the same compound?
**A.** > 25 µM

**Q.** And the GI50 (UO-31 renal)?
**A.** 5.86 µM

**Q.** And the TGI (UO-31 renal)?
**A.** > 25 µM

**Q.** What about the GI50 (DU-145 prostate) of the same compound?
**A.** > 25 µM

**Q.** What about the TGI (DU-145 prostate) of the same compound?
**A.** > 25 µM

**Q.** What about the GI50 (HL-60(TB) leukemia) of the same compound?
**A.** > 25 µM

**Q.** And the TGI (HL-60(TB) leukemia)?
**A.** > 25 µM

**Q.** And the GI50 (CAKI-1 renal)?
**A.** 8.71 µM

**Q.** And the TGI (CAKI-1 renal)?
**A.** > 25 µM

**Q.** And the GI50 (RPMI-8226 leukemia)?
**A.** > 25 µM

**Q.** What about the TGI (RPMI-8226 leukemia) of the same compound?
**A.** > 25 µM

**Q.** And the GI50 (OVCAR-4 ovarian)?
**A.** > 25 µM

**Q.** And the TGI (OVCAR-4 ovarian)?
**A.** > 25 µM

**Q.** And the GI50 (NCI/ADR-RES ovarian)?
**A.** > 25 µM

**Q.** What about the TGI (NCI/ADR-RES ovarian) of the same compound?
**A.** > 25 µM

**Q.** What about the GI50 (HCT-15 colon) of the same compound?
**A.** > 25 µM

**Q.** What about the TGI (HCT-15 colon) of the same compound?
**A.** > 25 µM

**Q.** And the GI50 (PC-3 prostate)?
**A.** > 25 µM

**Q.** And the TGI (PC-3 prostate)?
**A.** > 25 µM

**Q.** What about the GI50 (NCI-H23 lung) of the same compound?
**A.** > 25 µM

**Q.** What about the TGI (NCI-H23 lung) of the same compound?
**A.** > 25 µM

**Q.** What about the GI50 (SK-MEL-5 melanoma) of the same compound?
**A.** > 25 µM

**Q.** What about the TGI (SK-MEL-5 melanoma) of the same compound?
**A.** > 25 µM

**Q.** And the GI50 (RXF 393 renal)?
**A.** 3.21 µM

**Q.** And the TGI (RXF 393 renal)?
**A.** 16.6 µM

**Q.** And the GI50 (NCI-H460 lung)?
**A.** > 25 µM

**Q.** What about the TGI (NCI-H460 lung) of the same compound?
**A.** > 25 µM

**Q.** And the GI50 (A549 NSCLC)?
**A.** > 25 µM

**Q.** And the TGI (A549 NSCLC)?
**A.** > 25 µM

**Q.** What about the GI50 (LOX IMVI melanoma) of the same compound?
**A.** 10.4 µM

**Q.** And the TGI (LOX IMVI melanoma)?
**A.** > 25 µM

**Q.** What about the GI50 (COLO 205 colon) of the same compound?
**A.** > 25 µM

**Q.** And the TGI (COLO 205 colon)?
**A.** > 25 µM

**Q.** And the GI50 (HOP-62 NSCLC)?
**A.** > 25 µM

**Q.** What about the TGI (HOP-62 NSCLC) of the same compound?
**A.** > 25 µM

**Q.** And the GI50 (OVCAR-8 ovarian)?
**A.** > 25 µM

**Q.** What about the TGI (OVCAR-8 ovarian) of the same compound?
**A.** > 25 µM

**Q.** And the GI50 (A498 renal)?
**A.** 0.6 µM

**Q.** What about the TGI (A498 renal) of the same compound?
**A.** 5.88 µM

**Q.** What about the GI50 (SR leukemia) of the same compound?
**A.** 15.6 µM

**Q.** What about the TGI (SR leukemia) of the same compound?
**A.** > 25 µM

**Q.** And the GI50 (KM12 colon)?
**A.** 2.1 µM

**Q.** What about the TGI (KM12 colon) of the same compound?
**A.** > 25 µM

**Q.** And the GI50 (T-47D breast)?
**A.** 16.7 µM

**Q.** And the TGI (T-47D breast)?
**A.** > 25 µM

**Q.** And the GI50 (EKVX NSCLC)?
**A.** > 25 µM

**Q.** And the TGI (EKVX NSCLC)?
**A.** > 25 µM

**Q.** What about the GI50 (BT-549 breast) of the same compound?
**A.** 20.4 µM

**Q.** What about the TGI (BT-549 breast) of the same compound?
**A.** > 25 µM

**Q.** And the GI50 (MDA-MB-435)?
**A.** > 25 µM

**Q.** And the TGI (MDA-MB-435)?
**A.** > 25 µM

**Q.** And the GI50 (SW-620 colon)?
**A.** > 25 µM

**Q.** And the TGI (SW-620 colon)?
**A.** > 25 µM

**Q.** And the GI50 (SK-MEL-2 melanoma)?
**A.** > 25 µM

**Q.** And the TGI (SK-MEL-2 melanoma)?
**A.** > 25 µM

**Q.** And the GI50 (SF-268 CNS)?
**A.** 17.9 µM

**Q.** What about the TGI (SF-268 CNS) of the same compound?
**A.** > 25 µM

**Q.** And the GI50 (NCI-H226 lung)?
**A.** 2.69 µM

**Q.** What about the TGI (NCI-H226 lung) of the same compound?
**A.** > 25 µM

**Q.** And the GI50 (UACC-62 melanoma)?
**A.** > 25 µM

**Q.** And the TGI (UACC-62 melanoma)?
**A.** > 25 µM

**Q.** And the GI50 (HCT-116 colon)?
**A.** 11.4 µM

**Q.** What about the TGI (HCT-116 colon) of the same compound?
**A.** > 25 µM

**Q.** What about the GI50 (SK-OV-3 ovarian) of the same compound?
**A.** 21.5 µM

**Q.** And the TGI (SK-OV-3 ovarian)?
**A.** > 25 µM

**Q.** What about the GI50 (SNB-75 CNS) of the same compound?
**A.** 2.73 µM

**Q.** What about the TGI (SNB-75 CNS) of the same compound?
**A.** 23 µM

**Q.** And the GI50 (K-562 leukemia)?
**A.** 7.56 µM

**Q.** What about the TGI (K-562 leukemia) of the same compound?
**A.** > 25 µM

**Q.** And the GI50 (ACHN renal)?
**A.** 11.4 µM

**Q.** What about the TGI (ACHN renal) of the same compound?
**A.** > 25 µM

**Q.** What about the GI50 (M14 melanoma) of the same compound?
**A.** > 25 µM

**Q.** What about the TGI (M14 melanoma) of the same compound?
**A.** > 25 µM
